pIC50: −log10 of the molar value.
Columns and labels:
human CYP11B1 = biological target: T1, human CYP11B1 (Homo sapiens, UniProt P15538); test: Inhibition of hCYP11B1 in transfected V79 cells; type: cell-based; conditions: hamster V79 cells expressing human CYP11B1; substrate 11-deoxycortisol 200 nM
T1 construct: expressed in transfected cells
T1 sequence (P15538 25-503): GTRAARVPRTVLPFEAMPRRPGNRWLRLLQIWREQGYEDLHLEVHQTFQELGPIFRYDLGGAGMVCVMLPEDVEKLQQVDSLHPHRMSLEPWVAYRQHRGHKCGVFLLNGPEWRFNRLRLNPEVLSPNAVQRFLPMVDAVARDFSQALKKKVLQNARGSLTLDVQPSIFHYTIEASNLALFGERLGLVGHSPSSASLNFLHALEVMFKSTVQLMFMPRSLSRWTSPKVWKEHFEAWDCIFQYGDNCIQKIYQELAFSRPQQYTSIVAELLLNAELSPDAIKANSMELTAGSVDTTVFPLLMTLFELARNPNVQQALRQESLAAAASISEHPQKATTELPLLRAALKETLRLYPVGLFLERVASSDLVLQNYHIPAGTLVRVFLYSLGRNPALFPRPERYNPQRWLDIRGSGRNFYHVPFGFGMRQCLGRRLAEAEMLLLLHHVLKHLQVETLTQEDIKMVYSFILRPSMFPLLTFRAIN
Summary of the method: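 V79 hamster cells stably expressing human CYP11B1 and rat NADPH-P450 reductase were preincubated with compounds for 2 h. 11-Deoxycortisol (200 nM) was then added as substrate for 30 min before ethyl acetate quench. Substrate and product were quantified by LC-MS/MS or HPLC at 260 nm, and IC50 was derived from percent inhibition.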

human CYP11B2 = biological target: T2, human CYP11B2 (Homo sapiens, UniProt P19099); test: Inhibition of hCYP11B2 in transfected V79 cells; type: cell-based; conditions: hamster V79 cells expressing human CYP11B2; substrate 11-deoxycorticosterone 200 nM
T2 construct: expressed in transfected cells
T2 sequence (P19099 25-503): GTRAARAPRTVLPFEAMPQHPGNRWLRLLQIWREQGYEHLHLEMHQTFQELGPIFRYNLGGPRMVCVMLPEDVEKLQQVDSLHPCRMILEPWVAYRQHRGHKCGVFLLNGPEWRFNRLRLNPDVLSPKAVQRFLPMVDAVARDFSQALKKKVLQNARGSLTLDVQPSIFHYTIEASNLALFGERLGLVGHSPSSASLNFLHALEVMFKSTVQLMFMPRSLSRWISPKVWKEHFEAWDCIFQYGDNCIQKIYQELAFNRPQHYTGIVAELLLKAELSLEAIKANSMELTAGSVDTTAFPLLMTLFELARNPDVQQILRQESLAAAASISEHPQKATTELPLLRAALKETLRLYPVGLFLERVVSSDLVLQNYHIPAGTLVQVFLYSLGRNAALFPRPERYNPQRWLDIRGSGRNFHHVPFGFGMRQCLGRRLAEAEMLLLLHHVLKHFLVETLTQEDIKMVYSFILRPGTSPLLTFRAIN
Summary of the method: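 Hamster V79 cells stably co-expressing human CYP11B2 and rat NADPH-P450 reductase were pre-incubated with compounds for 2 hours, then given 200 nM 11-deoxycorticosterone for 30 minutes before ethyl acetate quench. Substrate and product were quantified by LC-MS/MS or HPLC at 260 nm, and IC50 was derived from percent inhibition.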

Structure (SMILES)	pIC50 (human CYP11B1)	pIC50 (human CYP11B2)
N#Cc1ccc(S(=O)(=O)N2CCSc3c(-c4cc5ccccc5s4)cncc32)cc1 [S43, 4-((8-(Benzo[b]thiophen-2-yl)-2,3-dihydro-4H-pyrido[4,3-b][1,4]thiazin-4-yl)sulfonyl)benzonitrile]	6.21	8.19
Cc1cccc(C(=O)N2CCSc3c(-c4ccc(C#N)cc4)cncc32)c1 [S91, 4-(4-(3-Methylbenzoyl)-3,4-dihydro-2H-pyrido[4,3-b][1,4]thiazin-8-yl)benzonitrile]	5.44	7.36
N#Cc1ccc(-c2cncc3c2SCCN3C(=O)c2ccc(F)cc2)cc1 [S5, 4-(4-(4-Fluorobenzoyl)-3,4-dihydro-2H-pyrido[4,3-b][1,4]thiazin-8-yl)benzonitrile]	5.53	7.68
Cc1ccc(S(=O)(=O)N2CCc3c(-c4ccc(C#N)cc4)cncc32)cc1 [C1, 4-(1-Tosyl-2,3-dihydro-1H-pyrrolo[2,3-c]pyridin-4-yl)benzonitrile]	9.25	9.62
COc1cccc(C(=O)N2CC(S(=O)(=O)N3CCSc4c(-c5ccc(C#N)cc5)cncc43)C2)c1 [S73, 4-(4-((1-(3-Methoxybenzoyl)azetidin-3-yl)sulfonyl)-3,4-dihydro-2H-pyrido[4,3-b][1,4]thiazin-8-yl)benzonitrile]	7.74	9.52
N#Cc1ccc(-c2cncc3c2OCCN3C(=O)C2CN(S(=O)(=O)c3cccc(C#N)c3)C2)cc1 [O68, 3-((3-(8-(4-Cyanophenyl)-3,4-dihydro-2H-pyrido[4,3-b][1,4]oxazine-4-carbonyl)azetidin-1-yl)sulfonyl)benzonitrile]	7.28	9.15
N#Cc1ccc(-c2cncc3c2SCCN3S(=O)(=O)C2CN(Cc3cccc(F)c3)C2)cc1 [S83, 4-(4-((1-(3-Fluorobenzyl)azetidin-3-yl)sulfonyl)-3,4-dihydro-2H-pyrido[4,3-b][1,4]thiazin-8-yl)benzonitrile]	7.68	9.10
N#Cc1ccc(-c2cncc3c2SCCN3S(=O)(=O)c2ccc(Cl)cc2)cc1 [S15, 4-(4-((4-Chlorophenyl)sulfonyl)-3,4-dihydro-2H-pyrido[4,3-b][1,4]thiazin-8-yl)benzonitrile]	8.66	10.30
N#CN1CCN(c2cncc3c2OCCN3C(=O)C2CN(Cc3cccc(F)c3)C2)C(=O)C1 [O99, 4-(4-(1-(3-Fluorobenzyl)azetidine-3-carbonyl)-3,4-dihydro-2H-pyrido[4,3-b][1,4]oxazin-8-yl)-3-oxopiperazine-1-carbonitrile]	6.19	7.41
COc1ccc(C(=O)N2CCc3c(-c4ccc(C#N)cc4)cncc32)cc1 [C24, 4-(1-(4-Methoxybenzoyl)-2,3-dihydro-1H-pyrrolo[2,3-c]pyridin-4-yl)benzonitrile]	6.91	8.64
N#Cc1ccc(-c2cncc3c2OCCN3C(=O)C2CN(S(=O)(=O)c3ccc(C#N)cc3)C2)cc1 [O75, 4-((3-(8-(4-Cyanophenyl)-3,4-dihydro-2H-pyrido[4,3-b][1,4]oxazine-4-carbonyl)azetidin-1-yl)sulfonyl)benzonitrile]	7.05	8.89
N#Cc1ccc(-c2cncc3c2ccn3S(=O)(=O)c2cccc(F)c2)cc1 [E12, 4-(1-((3-Fluorophenyl)sulfonyl)-1H-pyrrolo[2,3-c]pyridin-4-yl)benzonitrile]	9.30	9.52
N#Cc1ccc(-c2cncc3c2OCCN3S(=O)(=O)C2CC(c3ccccc3)=NO2)cc1 (centres unmarked) [O102, 4-(4-((3-Phenyl-4,5-dihydroisoxazol-5-yl)sulfonyl)-3,4-dihydro-2H-pyrido[4,3-b][1,4]oxazin-8-yl)benzonitrile]	7.21	9.52
Cc1cccc(S(=O)(=O)n2ccc3c(-c4ccc(C#N)cc4)cncc32)c1 [E4, 4-(1-(m-Tolylsulfonyl)-1H-pyrrolo[2,3-c]pyridin-4-yl)benzonitrile]	9.52	9.40
N#Cc1ccc(-c2cncc3c2OCCN3C(=O)C2CN(c3cccc(F)c3)C2)cc1 [O84, 4-(4-(1-(3-Fluorophenyl)azetidine-3-carbonyl)-3,4-dihydro-2H-pyrido[4,3-b][1,4]oxazin-8-yl)benzonitrile]	7.28	8.80
N#Cc1ccc(-c2cncc3c2OCCN3C(=O)CCc2ccc(F)cc2)cc1 [O47, 4-(4-(3-(4-Fluorophenyl)propanoyl)-3,4-dihydro-2H-pyrido[4,3-b][1,4]oxazin-8-yl)benzonitrile]	7.28	8.42
COc1ccc(C(=O)N2CCOc3c(-c4ccc(C#N)cc4)cncc32)cc1 [O22, 4-(4-(4-Methoxybenzoyl)-3,4-dihydro-2H-pyrido[4,3-b][1,4]oxazin-8-yl)benzonitrile]	5.47	6.97
COc1ccc(S(=O)(=O)N2CC(S(=O)(=O)N3CCSc4c(-c5ccc(C#N)cc5)cncc43)C2)cc1 [S78, 4-(4-((1-((4-Methoxyphenyl)sulfonyl)azetidin-3-yl)sulfonyl)-3,4-dihydro-2H-pyrido[4,3-b][1,4]thiazin-8-yl)benzonitrile]	7.42	8.92
N#Cc1ccc(-c2cncc3c2CCN3S(=O)(=O)c2ccc([N+](=O)[O-])cc2)cc1 [C2, 4-(1-((4-Nitrophenyl)sulfonyl)-2,3-dihydro-1H-pyrrolo[2,3-c]pyridin-4-yl)benzonitrile]	9.46	9.92
N#Cc1ccc(S(=O)(=O)N2CCSc3c(-c4ccc5c(c4)CC(=O)N5)cncc32)cc1 [S51, 4-((8-(2-Oxoindolin-5-yl)-2,3-dihydro-4H-pyrido[4,3-b][1,4]thiazin-4-yl)sulfonyl)benzonitrile]	5.71	7.99
Cc1ccc(S(=O)(=O)N2CC(C(=O)N3CCOc4c(-c5ccc(C#N)cc5)cncc43)C2)cc1 [O65, 4-(4-(1-Tosylazetidine-3-carbonyl)-3,4-dihydro-2H-pyrido[4,3-b][1,4]oxazin-8-yl)benzonitrile]	6.28	8.60
N#Cc1ccc(-c2cncc3c2OCCN3S(=O)(=O)C2CN(Cc3ccc(F)cc3)C2)cc1 [O123, 4-(4-((1-(4-Fluorobenzyl)azetidin-3-yl)sulfonyl)-3,4-dihydro-2H-pyrido[4,3-b][1,4]oxazin-8-yl)benzonitrile]	7.59	9.52
O=C(C1CN(Cc2cccc(F)c2)C1)N1CCOc2c(N3CCn4cnnc4C3)cncc21 [O135, (8-(5,6-Dihydro-[1,2,4]triazolo[4,3-a]pyrazin-7 (8H)-yl)-2,3-dihydro-4H-pyrido[4,3-b][1,4]oxazin-4-yl)(1-(3-fluorobenzyl)azetidin-3-yl)methanone]	5.38	7.18
N#Cc1ccc(-c2cncc3c2OCCN3C(=O)CNC(=O)c2ccc(F)cc2)cc1 [O59, N-(2-(8-(4-Cyanophenyl)-2,3-dihydro-4H-pyrido[4,3-b][1,4]oxazin-4-yl)-2-oxoethyl)-4-fluorobenzamide]	6.56	8.55
Cc1ccsc1C(=O)N1CCc2c(-c3ccc(C#N)cc3)cncc21 [C45, 4-(1-(3-Methylthiophene-2-carbonyl)-2,3-dihydro-1H-pyrrolo[2,3-c]pyridin-4-yl)benzonitrile]	6.82	7.70
COc1cccc(CN2CC(S(=O)(=O)N3CCOc4c(-c5ccc(C#N)cc5)cncc43)C2)c1 [O124, 4-(4-((1-(3-Methoxybenzyl)azetidin-3-yl)sulfonyl)-3,4-dihydro-2H-pyrido[4,3-b][1,4]oxazin-8-yl)benzonitrile]	7.42	9.22
O=C(C1CN(Cc2cccc(F)c2)C1)N1CCOc2c(-c3ccc4ncsc4c3)cncc21 [O88, (8-(Benzo[d]thiazol-6-yl)-2,3-dihydro-4H-pyrido[4,3-b][1,4]oxazin-4-yl)(1-(3-fluorobenzyl)azetidin-3-yl)methanone]	6.31	8.22
N#Cc1ccc(-c2cncc3c2OCCN3C(=O)CCl)cc1 [O33, 4-(4-(2-Chloroacetyl)-3,4-dihydro-2H-pyrido[4,3-b][1,4]oxazin-8-yl)benzonitrile]	5.89	7.74

— patent publication US20260092074A1, “Annelated Pyridines as Steroidogenesis Inhibitors, Preparation Method and Use Thereof” (Guangzhou Vinnocent Pharmaceutical Limited, priority 2022, published 2026)
